The text below walks through data of PubChem BioAssay (NCI).

Each structure is given as a SMILES string.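 All cell lines were grown in 96-well plates and treated with compound for 48 hours. GI50 marks 50% less growth. TGI: total growth inhibition.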

Some test systems named below: SF-539 CNS; M14 melanoma; RPMI-8226 leukemia; SK-MEL-5 melanoma; PC-3 prostate; SF-268 CNS; MALME-3M melanoma; SK-MEL-2 melanoma; HOP-62 NSCLC; LOX IMVI melanoma.
What all share (assay): NCI tumour cell line growth inhibition, 48 h

On to `C=C(C)[C@@H]1CC[C@]2(CO)CC[C@]3(C)[C@H](CC[C@@H]4[C@@]5(C)C=C(C#N)C(=O)C(C)(C)[C@@H]5CC[C@]43C)[C@@H]12`, for which the GI50 with SF-539 CNS was 2.61 µM; in the test on M14 melanoma, 1.55 µM; in the test on RPMI-8226 leukemia it was 0.809 µM; in the test on SK-MEL-5 melanoma it was 1.2 µM; in the test on PC-3 prostate, 1.57 µM; with SF-268 CNS, 1.46 µM. Besides, the GI50 is 1.4 µM with MALME-3M melanoma, 1.91 µM in the test on SK-MEL-2 melanoma, 1.74 µM with HOP-62 NSCLC and 1.18 µM in the test with LOX IMVI melanoma. Further, the TGI amounted to 8.34 µM in the test on SF-539 CNS; 3.78 µM in the test on M14 melanoma; 3.86 µM in the test on RPMI-8226 leukemia; 2.52 µM in the test on SK-MEL-5 melanoma; 5.42 µM in the test with PC-3 prostate; 4.78 µM in the test with SF-268 CNS. In addition, the TGI came to 3.82 µM in the test on MALME-3M melanoma, 4.59 µM with SK-MEL-2 melanoma, 3.85 µM with HOP-62 NSCLC and 2.68 µM with LOX IMVI melanoma.
For `CC1(C)C(=O)/C(=C\c2cccnc2)C[C@]2(C)[C@H]3CC[C@@H]4[C@H]5[C@H](C(=O)/C=C/c6cccnc6)CC[C@]5(C(=O)O)CC[C@@]4(C)[C@]3(C)CC[C@@H]12`, the GI50 in the test with SF-539 CNS is 1.9 µM; in the test with M14 melanoma, 2.64 µM; in the test with RPMI-8226 leukemia, 1.88 µM; in the test with SK-MEL-5 melanoma, 1.8 µM; in the test on PC-3 prostate, 2.41 µM; in the test with SF-268 CNS it was 2.15 µM. The GI50 is 2 µM in the test on MALME-3M melanoma, 2.54 µM in the test on SK-MEL-2 melanoma, 1.89 µM in the test on HOP-62 NSCLC and 1.74 µM in the test with LOX IMVI melanoma. The TGI with SF-539 CNS came out at 3.92 µM; in the test on M14 melanoma, 8.97 µM; with RPMI-8226 leukemia it was 7.28 µM; in the test on SK-MEL-5 melanoma, 3.22 µM; in the test with PC-3 prostate, 8.58 µM; with SF-268 CNS, 5.46 µM. The TGI is 4.46 µM with MALME-3M melanoma, 6.66 µM in the test with SK-MEL-2 melanoma, 4.5 µM in the test with HOP-62 NSCLC and 3.6 µM in the test with LOX IMVI melanoma.
Consider `CC(=O)O[C@H]1CCC2[C@@H]3CC[C@]4(C)CC(=O)C=C[C@]4(C)C3CC[C@@]21C` (some centres undefined), for which the TGI with SF-539 CNS was 31.8 µM; in the test on M14 melanoma it was 34.1 µM; in the test with RPMI-8226 leukemia it was 61.5 µM; in the test with SK-MEL-5 melanoma, 28.3 µM; in the test on PC-3 prostate, 77.1 µM; in the test on SF-268 CNS, 43.8 µM. Also, the TGI in the test with MALME-3M melanoma came out at 34.3 µM; in the test with SK-MEL-2 melanoma, 38.7 µM; with HOP-62 NSCLC, 97.9 µM; in the test on LOX IMVI melanoma it was 30.9 µM.
For the molecule `CCCCCCCCCCCCCCCC(=O)OCC(C[As](=O)(O)O)OC(=O)CCCCCCCCCCCCCCC` (centres undefined), the TGI with SF-539 CNS, in the test on M14 melanoma, with RPMI-8226 leukemia, in the test on SK-MEL-5 melanoma, in the test with PC-3 prostate and in the test on SF-268 CNS was above 100 µM in each case. Further, the TGI in the test with MALME-3M melanoma, in the test with SK-MEL-2 melanoma, in the test on HOP-62 NSCLC and in the test on LOX IMVI melanoma was above 100 µM throughout.
For the molecule `O=C(Nc1n[nH]c2cc(-c3ccccc3)ccc12)C1CC1`, the GI50 is 13 µM in the test with SF-539 CNS; 15.4 µM with M14 melanoma; 9.58 µM in the test on RPMI-8226 leukemia; 8.75 µM in the test on SK-MEL-5 melanoma; 10.5 µM in the test on PC-3 prostate; above 21.2 µM in the test with SF-268 CNS. For the same molecule, the GI50 in the test with MALME-3M melanoma was above 17.7 µM; in the test with SK-MEL-2 melanoma, above 25 µM; in the test with HOP-62 NSCLC, above 25 µM; with LOX IMVI melanoma it was 16 µM. In addition, the TGI with SF-539 CNS, with M14 melanoma, in the test on RPMI-8226 leukemia, in the test with SK-MEL-5 melanoma, in the test on PC-3 prostate and in the test with SF-268 CNS was above 25 µM each time. The TGI in the test with MALME-3M melanoma, with SK-MEL-2 melanoma, in the test on HOP-62 NSCLC and in the test with LOX IMVI melanoma was above 25 µM in each case.
As for `O=S(=O)(c1ccc(NC(=S)NC23CC4CC(CC(C4)C2)C3)cc1)N1CCCCC1`, the GI50 in the test with SF-539 CNS is 4.19 µM; with M14 melanoma, 3.36 µM; in the test with RPMI-8226 leukemia it was 2.15 µM; in the test on SK-MEL-5 melanoma it was 1.75 µM; in the test with PC-3 prostate, 2.55 µM; in the test on SF-268 CNS, 4.12 µM. Further, the GI50 is 2.76 µM in the test with MALME-3M melanoma, 3.29 µM in the test on SK-MEL-2 melanoma, 3.67 µM with HOP-62 NSCLC and 3.71 µM with LOX IMVI melanoma. In addition, the TGI in the test on SF-539 CNS was above 100 µM; in the test with M14 melanoma, 22.7 µM; with RPMI-8226 leukemia, 5.86 µM; with SK-MEL-5 melanoma, 3.31 µM; in the test on PC-3 prostate, 8.94 µM; in the test on SF-268 CNS it was above 100 µM. In addition, the TGI in the test with MALME-3M melanoma was 8.3 µM; in the test on SK-MEL-2 melanoma it was 7.39 µM; in the test on HOP-62 NSCLC it was above 100 µM; in the test with LOX IMVI melanoma it was above 100 µM.
Regarding `OCC1OC(n2cnc3c2NC=NC[C@H]3O)C(Cl)C1O` (some centres undefined), the TGI in the test on SF-539 CNS, with M14 melanoma, in the test on RPMI-8226 leukemia, in the test on SK-MEL-5 melanoma, in the test on PC-3 prostate and in the test on SF-268 CNS was above 100 µM in each case. Moreover, the TGI in the test on MALME-3M melanoma, in the test with SK-MEL-2 melanoma, with HOP-62 NSCLC and in the test with LOX IMVI melanoma was above 100 µM each time.
`COCC[C@H]1CCC/C=C/[C@@H]2C[C@H](O)C[C@H]2[C@H](O)/C=C/C(=O)O1`: the GI50 in the test with SF-539 CNS was 0.213 µM; in the test on M14 melanoma it was 0.0436 µM; in the test with RPMI-8226 leukemia it was 0.284 µM; in the test with SK-MEL-5 melanoma, 0.0172 µM; with PC-3 prostate, 0.193 µM; in the test on SF-268 CNS it was 0.0488 µM. In addition, the GI50 is 0.0344 µM in the test with MALME-3M melanoma, 0.177 µM with SK-MEL-2 melanoma, 0.0946 µM in the test with HOP-62 NSCLC and 0.0434 µM in the test with LOX IMVI melanoma. The TGI is above 100 µM in the test with SF-539 CNS; above 100 µM in the test on M14 melanoma; 0.0319 µM in the test with SK-MEL-5 melanoma; above 100 µM in the test with PC-3 prostate; above 100 µM in the test on SF-268 CNS; 0.228 µM in the test on MALME-3M melanoma. Besides, the results for the TGI in the test with SK-MEL-2 melanoma, with HOP-62 NSCLC and with LOX IMVI melanoma were 0.636 µM, above 100 µM and 0.179 µM, respectively.
For `CC(C)c1c(O)c(O)c2c(c1O)C(=O)C(O)=C1C(C)(C)CCC[C@@]12C`, the TGI in the test on SF-539 CNS stood at 14.8 µM; in the test with M14 melanoma, 19.3 µM; in the test with RPMI-8226 leukemia, 3.99 µM; in the test with SK-MEL-5 melanoma, 10.8 µM; in the test on PC-3 prostate it was 11.8 µM; with SF-268 CNS, 20 µM. The TGI in the test with MALME-3M melanoma was 15.9 µM; in the test with SK-MEL-2 melanoma, 13.9 µM; in the test with HOP-62 NSCLC it was above 100 µM; in the test with LOX IMVI melanoma, 13.8 µM.
